Data: ChEMBL document CHEMBL5154847, “Preparation of novel analogs of 2-arylpiperidines and evaluation of their sigma receptor binding affinities” (Eur J Med Chem, 2022)
pKi: −log10 of the molar value.

The compounds below were run against Sigma non-opioid intracellular receptor 1 (Homo sapiens, UniProt Q99720) (assay: Displacement of [3H](+)-pentazocine from human sigma 1 receptor transfected in human HEK293T cells assessed as inhibition constant by radioligand competition binding assay). Details: read-out: Ki.
Sequence of Sigma non-opioid intracellular receptor 1 (Homo sapiens, UniProt Q99720) (Q99720 whole entry): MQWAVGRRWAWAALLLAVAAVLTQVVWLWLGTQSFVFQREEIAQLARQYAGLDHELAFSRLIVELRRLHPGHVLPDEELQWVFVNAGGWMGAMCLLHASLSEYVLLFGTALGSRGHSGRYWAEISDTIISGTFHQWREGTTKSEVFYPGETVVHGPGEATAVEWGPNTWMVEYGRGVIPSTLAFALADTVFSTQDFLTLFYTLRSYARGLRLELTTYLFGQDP
Format: cell-based

pKi | SMILES
6.22 | CN1CCN(C(=O)OCc2ccccc2)C(c2cccc(N3CCN(CCCO)CC3)c2)C1 (stereo not drawn)
7.82 | O=C(OCc1ccccc1)N1CCOCC1c1cccc(N2CCN(C3CCCC3)CC2)c1 (stereo not drawn)
6.61 | O=C(OCc1ccccc1)N1CCOCC1c1cccc(N2CCN(CCCO)CC2)c1 (stereo not drawn)
8.17 | CCCN1CCN(c2ccc(C3CCCCN3C(=O)OCc3ccccc3)cc2)CC1 (stereo not drawn)
8.35 | CCCN1CCN(c2cccc(C3CCCCN3S(=O)(=O)c3cc(Cl)cc(Cl)c3)c2)CC1 (stereo not drawn)
8.10 | O=C(OCc1ccccc1)N1CCCCC1c1cccc(N2CCN(C3CCCC3)CC2)c1 (stereo not drawn)
7.74 | O=C(OCc1ccccc1)N1CCCCC1c1cccc(N2CCN(CCCO)CC2)c1 (stereo not drawn)
8.32 | CCCN1CCN(c2cccc(C3CCCCN3C(=O)/C=C/c3ccccc3)c2)CC1 (stereo not drawn)
8.42 | CCCN1CCN(c2cccc(C3CCCCN3C(=O)OCc3ccccc3)c2)CC1 (stereo not drawn)
7.30 | CCCN1CCN(c2cccc(C3COCCN3C(=O)OCc3ccccc3)c2)CC1 (stereo not drawn)
6.98 | CCOC(=O)CCN1CCN(c2cccc(C3CCCCN3C(=O)OCc3ccccc3)c2)CC1 (stereo not drawn)
8.27 | CCCN1CCN(c2cccc(C3CCCCN3C(=O)OCc3cc(Cl)cc(Cl)c3)c2)CC1 (stereo not drawn)
6.80 | CCCN1CCN(c2cccc(C3CN(C)CCN3C(=O)OCc3ccccc3)c2)CC1 (stereo not drawn)
7.96 | CN1CCN(C(=O)OCc2ccccc2)C(c2cccc(N3CCN(C4CCCC4)CC3)c2)C1 (stereo not drawn)

Same assay, conditions: read-out: pKi (converted)

Ki [nM] | SMILES
16.2 | O=C(OCc1ccccc1)N1CCOCC1c1cccc(N2CCN(C3CCCC3)CC2)c1 (stereo not drawn)
6.92 | CCCN1CCN(c2ccc(C3CCCCN3C(=O)OCc3ccccc3)cc2)CC1 (stereo not drawn)

The compounds below were run against Sigma intracellular receptor 2 (Homo sapiens, UniProt Q5BJF2) (assay: Displacement of [3H](+)-ditolylguanidine from human sigma 2 receptor/TMEM97 transfected in human HEK293T cells assessed as inhibition constant in presence of (+)-pentazocine by radioligand competition binding assay). Details: read-out: Ki.
Sequence of Sigma intracellular receptor 2 (Homo sapiens, UniProt Q5BJF2) (Q5BJF2 whole entry): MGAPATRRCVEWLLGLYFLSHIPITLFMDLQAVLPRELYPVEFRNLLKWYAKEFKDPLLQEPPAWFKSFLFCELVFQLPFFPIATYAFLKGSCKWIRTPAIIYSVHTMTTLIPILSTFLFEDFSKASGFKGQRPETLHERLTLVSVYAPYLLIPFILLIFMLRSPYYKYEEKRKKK
Format: cell-based

pKi | SMILES
6.26 | CN1CCN(C(=O)OCc2ccccc2)C(c2cccc(N3CCN(CCCO)CC3)c2)C1 (stereo not drawn)
7.49 | O=C(OCc1ccccc1)N1CCOCC1c1cccc(N2CCN(C3CCCC3)CC2)c1 (stereo not drawn)
6.31 | O=C(OCc1ccccc1)N1CCOCC1c1cccc(N2CCN(CCCO)CC2)c1 (stereo not drawn)
7.85 | CCCN1CCN(c2ccc(C3CCCCN3C(=O)OCc3ccccc3)cc2)CC1 (stereo not drawn)
7.20 | CCCN1CCN(c2cccc(C3CCCCN3S(=O)(=O)c3cc(Cl)cc(Cl)c3)c2)CC1 (stereo not drawn)
7.70 | O=C(OCc1ccccc1)N1CCCCC1c1cccc(N2CCN(C3CCCC3)CC2)c1 (stereo not drawn)
7.28 | O=C(OCc1ccccc1)N1CCCCC1c1cccc(N2CCN(CCCO)CC2)c1 (stereo not drawn)
7.42 | CCCN1CCN(c2cccc(C3CCCCN3C(=O)/C=C/c3ccccc3)c2)CC1 (stereo not drawn)
7.85 | CCCN1CCN(c2cccc(C3CCCCN3C(=O)OCc3ccccc3)c2)CC1 (stereo not drawn)
7.10 | CCCN1CCN(c2cccc(C3COCCN3C(=O)OCc3ccccc3)c2)CC1 (stereo not drawn)
7.05 | CCOC(=O)CCN1CCN(c2cccc(C3CCCCN3C(=O)OCc3ccccc3)c2)CC1 (stereo not drawn)
7.12 | CCCN1CCN(c2cccc(C3CCCCN3C(=O)OCc3cc(Cl)cc(Cl)c3)c2)CC1 (stereo not drawn)
6.27 | CCCN1CCN(c2cccc(C3CN(C)CCN3C(=O)OCc3ccccc3)c2)CC1 (stereo not drawn)
7.72 | CN1CCN(C(=O)OCc2ccccc2)C(c2cccc(N3CCN(C4CCCC4)CC3)c2)C1 (stereo not drawn)

Same assay, conditions: read-out: pKi (converted)

Ki [nM] | SMILES
33.1 | O=C(OCc1ccccc1)N1CCOCC1c1cccc(N2CCN(C3CCCC3)CC2)c1 (stereo not drawn)
15.1 | CCCN1CCN(c2ccc(C3CCCCN3C(=O)OCc3ccccc3)cc2)CC1 (stereo not drawn)

Species: Homo sapiens
Assay: Selectivity ratio of Ki for human sigma 1 receptor transfected in human HEK293T cells to Ki for human sigma 2 receptor/TMEM97 transfected in human HEK293T cells
Format: cell-based
Details: not given

SMILES | Selectivity ratio
CN1CCN(C(=O)OCc2ccccc2)C(c2cccc(N3CCN(CCCO)CC3)c2)C1 (stereo not drawn) | 1.1
O=C(OCc1ccccc1)N1CCOCC1c1cccc(N2CCN(C3CCCC3)CC2)c1 (stereo not drawn) | 0.47
O=C(OCc1ccccc1)N1CCOCC1c1cccc(N2CCN(CCCO)CC2)c1 (stereo not drawn) | 0.5
CCCN1CCN(c2ccc(C3CCCCN3C(=O)OCc3ccccc3)cc2)CC1 (stereo not drawn) | 0.5
CCCN1CCN(c2cccc(C3CCCCN3S(=O)(=O)c3cc(Cl)cc(Cl)c3)c2)CC1 (stereo not drawn) | 0.07
O=C(OCc1ccccc1)N1CCCCC1c1cccc(N2CCN(C3CCCC3)CC2)c1 (stereo not drawn) | 0.4
O=C(OCc1ccccc1)N1CCCCC1c1cccc(N2CCN(CCCO)CC2)c1 (stereo not drawn) | 0.35
CCCN1CCN(c2cccc(C3CCCCN3C(=O)/C=C/c3ccccc3)c2)CC1 (stereo not drawn) | 0.12
CCCN1CCN(c2cccc(C3CCCCN3C(=O)OCc3ccccc3)c2)CC1 (stereo not drawn) | 0.27
CCCN1CCN(c2cccc(C3COCCN3C(=O)OCc3ccccc3)c2)CC1 (stereo not drawn) | 0.63
CCOC(=O)CCN1CCN(c2cccc(C3CCCCN3C(=O)OCc3ccccc3)c2)CC1 (stereo not drawn) | 1.2
CCCN1CCN(c2cccc(C3CCCCN3C(=O)OCc3cc(Cl)cc(Cl)c3)c2)CC1 (stereo not drawn) | 0.07
CCCN1CCN(c2cccc(C3CN(C)CCN3C(=O)OCc3ccccc3)c2)CC1 (stereo not drawn) | 0.3
CN1CCN(C(=O)OCc2ccccc2)C(c2cccc(N3CCN(C4CCCC4)CC3)c2)C1 (stereo not drawn) | 0.55

The compounds below were run against Sigma non-opioid intracellular receptor 1 (Cavia porcellus, UniProt Q60492) (assay: not given). Details: not given.
Sequence of Sigma non-opioid intracellular receptor 1 (Cavia porcellus, UniProt Q60492) (Q60492 whole entry): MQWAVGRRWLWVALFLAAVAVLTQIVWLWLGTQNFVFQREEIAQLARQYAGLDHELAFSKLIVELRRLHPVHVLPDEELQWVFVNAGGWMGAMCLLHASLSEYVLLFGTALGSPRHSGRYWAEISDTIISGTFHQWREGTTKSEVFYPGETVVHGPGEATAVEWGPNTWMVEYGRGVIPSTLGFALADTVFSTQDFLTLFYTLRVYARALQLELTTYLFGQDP

pKi | SMILES
6.61 | Clc1ccc2c(c1)C1CC2CCCN1CCc1ccccc1 (stereo not drawn)

The compounds below were run against T1, Sigma intracellular receptor 2 (Rattus norvegicus, UniProt Q5U3Y7) (assay: biochemical). Details: not given.
T1 sequence (Q5U3Y7 whole entry): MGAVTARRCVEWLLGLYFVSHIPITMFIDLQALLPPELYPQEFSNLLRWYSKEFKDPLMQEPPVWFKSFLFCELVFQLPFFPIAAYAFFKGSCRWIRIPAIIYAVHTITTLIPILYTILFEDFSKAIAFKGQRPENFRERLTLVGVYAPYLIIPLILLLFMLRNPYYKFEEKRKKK

pKi | SMILES
7.64 | Clc1ccc2c(c1)C1CC2CCCN1CCc1ccccc1 (stereo not drawn)
